Legend:
hSERT [1] = target: T1, hSERT (Homo sapiens, UniProt P31645); experiment: hSERT neurotransmitter uptake assay (3H-5-HT), Assay 2; assay type: cell-based; design: expressed in transfected cells; host or cells: HEK-293; settings: serotonin reuptake inhibition, 3H-5-HT uptake, HEK-293 hSERT cells (values without asterisk); read-out: SERT pIC50 (converted)
Procedure: (§1) Cells were harvested by centrifugation at 1100 rpm for 5 minutes, washed once by resuspension in PBS, then centrifuged. The supernatant was discarded and the cell pellet resuspended, by gentle trituration, in room temperature Krebs-Ringer bicarbonate buffer containing HEPES (10 mM), CaCl2 (2.2 mM), ascorbic acid (200 μM) and pargyline (200 μM), pH 7.4.
(§2) Test compounds were incubated for 30 minutes at 37° C. with the respective cells, prior to addition of radiolabeled neurotransmitter, ^3H-5-HT (20 nM final concentration), ^3H-NE (50 nM final concentration) or ^3H-DA (100 nM final concentration).

hNET [2] = target: T2, hNET (Homo sapiens, UniProt P23975); experiment: hNET neurotransmitter uptake assay (3H-NE), Assay 2; assay type: cell-based; design: expressed in transfected cells; host or cells: HEK-293; settings: norepinephrine reuptake inhibition, 3H-NE uptake, HEK-293 hNET cells (values without asterisk); read-out: NET pIC50 (converted)
Procedure: as §1, §2

hNET [3] = target: T2, hNET; experiment: hNET membrane radioligand binding assay (3H-nisoxetine), Assay 1
hSERT [4] = target: T1, hSERT; experiment: hSERT membrane radioligand binding assay (3H-citalopram), Assay 1; settings: SERT pKi, hSERT HEK-293 membranes, 1.0 nM 3H-citalopram; values given as lower bounds

T1 sequence (P31645 whole entry): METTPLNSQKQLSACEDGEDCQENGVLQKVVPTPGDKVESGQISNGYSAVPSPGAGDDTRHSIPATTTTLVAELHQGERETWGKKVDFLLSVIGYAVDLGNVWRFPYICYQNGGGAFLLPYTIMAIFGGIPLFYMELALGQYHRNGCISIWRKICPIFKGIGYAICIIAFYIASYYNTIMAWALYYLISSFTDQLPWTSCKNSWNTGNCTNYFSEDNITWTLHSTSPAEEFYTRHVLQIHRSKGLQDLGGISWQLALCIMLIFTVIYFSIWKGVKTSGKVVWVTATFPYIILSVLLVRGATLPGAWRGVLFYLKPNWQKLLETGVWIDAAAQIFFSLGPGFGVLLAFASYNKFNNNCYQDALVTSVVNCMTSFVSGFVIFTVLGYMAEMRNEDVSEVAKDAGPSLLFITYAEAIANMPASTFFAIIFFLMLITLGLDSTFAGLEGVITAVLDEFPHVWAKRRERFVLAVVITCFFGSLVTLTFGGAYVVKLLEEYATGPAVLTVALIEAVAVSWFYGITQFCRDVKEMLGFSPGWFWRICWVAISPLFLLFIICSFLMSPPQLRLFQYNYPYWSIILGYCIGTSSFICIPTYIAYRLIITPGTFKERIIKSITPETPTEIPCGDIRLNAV
T2 sequence (P23975 whole entry): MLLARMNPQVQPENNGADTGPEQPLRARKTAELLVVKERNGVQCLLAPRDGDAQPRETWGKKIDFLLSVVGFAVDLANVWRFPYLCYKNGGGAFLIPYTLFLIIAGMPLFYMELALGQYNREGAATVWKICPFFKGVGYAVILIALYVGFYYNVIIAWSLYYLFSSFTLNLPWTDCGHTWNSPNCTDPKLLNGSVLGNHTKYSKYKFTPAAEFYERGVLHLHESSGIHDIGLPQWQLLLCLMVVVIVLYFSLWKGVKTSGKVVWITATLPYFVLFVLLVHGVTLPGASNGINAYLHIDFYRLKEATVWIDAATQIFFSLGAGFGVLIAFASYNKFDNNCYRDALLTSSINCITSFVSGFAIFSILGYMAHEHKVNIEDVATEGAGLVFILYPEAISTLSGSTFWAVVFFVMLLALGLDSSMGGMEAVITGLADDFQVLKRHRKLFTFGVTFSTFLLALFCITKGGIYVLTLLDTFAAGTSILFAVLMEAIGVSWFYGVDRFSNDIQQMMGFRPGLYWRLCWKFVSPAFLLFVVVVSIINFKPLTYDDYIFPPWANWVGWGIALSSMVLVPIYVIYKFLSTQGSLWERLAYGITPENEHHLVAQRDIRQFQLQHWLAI

Row | IC50 (hSERT [1]) [nM] | IC50 (hNET [2]) [nM] | Ki (hNET [3]) [nM] | Ki (hSERT [4]) [nM] | SMILES
1 | ≤ 100 | ≤ 10 | ≤ 10 | ≤ 10 | CCC[C@H](Oc1ccccc1Cl)[C@H]1CCNC1 [Example 4-19, (S)-3-[(S)-1-(2-Chlorophenoxy)butyl]pyrrolidine]
2 | ≤ 100 | ≤ 10 | ≤ 10 | ≤ 10 | CCC[C@@H](Oc1ccccc1Cl)[C@H]1CCNC1 [Example 4-20, (S)-3-[(R)-1-(2-Chlorophenoxy)butyl]pyrrolidine]
3 | ≤ 10 | ≤ 10 | ≤ 10 | ≤ 10 | CCC[C@@H](Oc1cccc(Cl)c1Cl)[C@H]1CCNC1 [Example 4-23, (S)-3-[(R)-1-(2,3-Dichlorophenoxy)butyl]pyrrolidine]
4 | ≤ 10 | ≤ 10 | ≤ 10 | ≤ 10 | CCC[C@@H](Oc1cccc(Cl)c1Cl)[C@@H]1CCNC1 [Example 4-25, (R)-3-[(R)-1-(2,3-Dichlorophenoxy)butyl]pyrrolidine]
5 | ≤ 10 | ≤ 10 | ≤ 10 | ≤ 10 | CCC[C@H](Oc1c(Cl)ccc(Cl)c1Cl)[C@H]1CCNC1 [Example 4-27, (S)-3-[(S)-1-(2,3,6-Trichlorophenoxy)butyl]pyrrolidine]
6 | ≤ 10 | ≤ 10 | ≤ 10 | ≤ 10 | CCC[C@H](Oc1ccc(Cl)cc1Cl)[C@H]1CCNC1 [Example 4-28, (S)-3-[(S)-1-(2,4-Dichlorophenoxy)butyl]pyrrolidine]
7 | ≤ 10 | ≤ 10 | ≤ 10 | ≤ 10 | CCC[C@H](Oc1ccc(F)cc1Cl)[C@H]1CCNC1 [Example 4-32, (S)-3-[(S)-1-(2-Chloro-4-fluorophenoxy)butyl]pyrrolidine]
8 | ≤ 100 | ≤ 10 | ≤ 10 | ≤ 10 | CCC[C@H](Oc1c(Cl)cccc1Cl)[C@H]1CCNC1 [Example 4-33, (S)-3-[(S)-1-(2,6-Dichlorophenoxy)butyl]pyrrolidine]
9 | ≤ 10 | ≤ 10 | ≤ 10 | ≤ 10 | CCC[C@H](Oc1ccc(C)cc1Cl)[C@H]1CCNC1 [Example 4-37, (S)-3-[(S)-1-(2-Chloro-4-methylphenoxy)butyl]pyrrolidine]
10 | ≤ 10 | ≤ 10 | ≤ 10 | ≤ 10 | CCC[C@H](Oc1c(F)ccc(OC)c1Cl)[C@H]1CCNC1 [Example 4-43, (S)-3-[(S)-1-(2-Chloro-6-fluoro-3-methoxyphenoxy)butyl]pyrrolidine]
11 | ≤ 100 | ≤ 10 | ≤ 10 | ≤ 10 | CCC[C@H](Oc1ccc(F)c(F)c1F)[C@H]1CCNC1 [Example 4-50, (S)-3-[(S)-1-(2,3,4-Trifluorophenoxy)butyl]pyrrolidine]
12 | ≤ 10 | ≤ 10 | ≤ 10 | ≤ 10 | CCC[C@H](Oc1cccc(Cl)c1C)[C@H]1CCNC1 [Example 4-54, (S)-3-[(S)-1-(3-Chloro-2-methylphenoxy)butyl]pyrrolidine]
13 | ≤ 100 | ≤ 10 | ≤ 10 | ≤ 10 | CCC[C@@H](Oc1cccc(Cl)c1C)[C@H]1CCNC1 [Example 4-55, (S)-3-[(R)-1-(3-Chloro-2-methylphenoxy)butyl]pyrrolidine]
14 | ≤ 10 | ≤ 10 | ≤ 10 | ≤ 10 | CCC[C@@H](Oc1cccc(Cl)c1C)[C@@H]1CCNC1 [Example 4-57, (R)-3-[(R)-1-(3-Chloro-2-methylphenoxy)butyl]pyrrolidine]
15 | ≤ 10 | ≤ 10 | ≤ 10 | ≤ 10 | CCC[C@H](Oc1ccc(Cl)cc1C)[C@H]1CCNC1 [Example 4-58, (S)-3-[(S)-1-(4-Chloro-2-methylphenoxy)butyl]pyrrolidine]
16 | ≤ 10 | ≤ 10 | ≤ 10 | ≤ 10 | CCC[C@@H](Oc1cccc(C)c1C)[C@@H]1CCNC1 [Example 4-63, (R)-3-[(R)-1-(2,3-Dimethylphenoxy)butyl]pyrrolidine]
17 | ≤ 10 | ≤ 10 | ≤ 10 | ≤ 10 | CC(C)[C@H](Oc1ccc(Cl)cc1)[C@H]1CCNC1 [Example 5, (S)-3-[(S)-1-(4-Chlorophenoxy)-2-methylpropyl]pyrrolidine]

Row | IC50 (hSERT [1]) [nM] | IC50 (hNET [2]) [nM] | Ki (hNET [3]) [nM] | Ki (hSERT [4]) [nM] | SMILES
18 | ≤ 10 | ≤ 10 | ≤ 10 | ≤ 10 | CC(C)[C@H](Oc1ccc(Cl)c(Cl)c1F)[C@H]1CCNC1 [Example 6-7, (S)-3-[(S)-1-(3,4-Dichloro-2-fluorophenoxy)-2-methylpropyl]pyrrolidine]
19 | ≤ 10 | ≤ 10 | ≤ 10 | ≤ 10 | CC(C)[C@H](Oc1ccc(Cl)c(F)c1F)[C@H]1CCNC1 [Example 6-10, (S)-3-[(S)-1-(4-Chloro-2,3-difluorophenoxy)-2-methylpropyl]pyrrolidine]
20 | ≤ 100 | ≤ 10 | ≤ 10 | ≤ 10 | CC(C)C(Oc1ccccc1Cl)C1CCNC1 (stereo not shown) [Example 6-11, 3-[1-(2-Chlorophenoxy)-2-methylpropyl]pyrrolidine]
21 | ≤ 10 | ≤ 10 | ≤ 10 | ≤ 10 | CC(C)[C@H](Oc1cccc(Cl)c1Cl)[C@H]1CCNC1 [Example 6-12, (S)-3-[(S)-1-(2,3-Dichlorophenoxy)-2-methylpropyl]pyrrolidine]
22 | ≤ 10 | ≤ 10 | ≤ 10 | ≤ 10 | CC(C)C(Oc1cccc(Cl)c1Cl)C1CCNC1 (stereo not shown) [Example 6-13, 3-[1-(2,3-Dichlorophenoxy)-2-methylpropyl]pyrrolidine]
23 | ≤ 10 | ≤ 10 | ≤ 10 | ≤ 10 | CC(C)[C@@H](Oc1cccc(Cl)c1Cl)[C@H]1CCNC1 [Example 6-14, (S)-3-[(R)-1-(2,3-Dichlorophenoxy)-2-methylpropyl]pyrrolidine]
24 | ≤ 10 | ≤ 10 | ≤ 10 | ≤ 10 | CC(C)[C@@H](Oc1cccc(Cl)c1Cl)[C@@H]1CCNC1 [Example 6-15, (R)-3-[(R)-1-(2,3-Dichlorophenoxy)-2-methylpropyl]pyrrolidine]
25 | ≤ 10 | ≤ 10 | ≤ 10 | ≤ 10 | CC(C)[C@H](Oc1cccc(F)c1Cl)[C@H]1CCNC1 [Example 6-17, (S)-3-[(S)-1-(2-Chloro-3-fluorophenoxy)-2-methylpropyl]pyrrolidine]
26 | ≤ 100 | ≤ 10 | ≤ 10 | ≤ 10 | CC(C)C(Oc1cccc(F)c1Cl)C1CCNC1 (stereo not shown) [Example 6-18, 3-[1-(2-Chloro-3-fluorophenoxy)-2-methylpropyl]pyrrolidine]
27 | ≤ 10 | ≤ 100 | ≤ 100 | ≤ 10 | CC(C)[C@@H](Oc1cccc(F)c1Cl)[C@H]1CCNC1 [Example 6-19, (S)-3-[(R)-1-(2-Chloro-3-fluorophenoxy)-2-methylpropyl]pyrrolidine]
28 | ≤ 10 | ≤ 10 | ≤ 10 | ≤ 10 | CC(C)[C@H](Oc1ccc(Cl)cc1Cl)[C@H]1CCNC1 [Example 6-21, (S)-3-[(S)-1-(2,4-Dichlorophenoxy)-2-methylpropyl]pyrrolidine]
29 | ≤ 10 | ≤ 10 | ≤ 10 | ≤ 10 | Cc1ccc(O[C@@H](C(C)C)[C@H]2CCNC2)c(Cl)c1 [Example 6-24, (S)-3-[(S)-1-(2-Chloro-4-methylphenoxy)-2-methylpropyl]pyrrolidine]
30 | ≤ 10 | ≤ 10 | ≤ 10 | ≤ 10 | CC(C)[C@H](Oc1c(F)cc(Cl)cc1Cl)[C@H]1CCNC1 [Example 6-30, (S)-3-[(S)-1-(2,4-Dichloro-6-fluorophenoxy)-2-methylpropyl]pyrrolidine]
31 | ≤ 10 | ≤ 10 | ≤ 10 | ≤ 10 | CC(C)[C@H](Oc1c(F)ccc(Cl)c1Cl)[C@H]1CCNC1 [Example 6-34, (S)-3-[(S)-1-(2,3-Dichloro-6-fluorophenoxy)-2-methylpropyl]pyrrolidine]
32 | ≤ 10 | ≤ 10 | ≤ 10 | ≤ 10 | CC(C)[C@H](Oc1c(Cl)ccc(Cl)c1Cl)[C@H]1CCNC1 [Example 6-35, (S)-3-[(S)-2-Methyl-1-(2,3,6-trichlorophenoxy)-propyl]-pyrrolidine]
33 | ≤ 100 | ≤ 10 | ≤ 10 | ≤ 10 | CC(C)[C@H](Oc1c(F)ccc(F)c1Cl)[C@H]1CCNC1 [Example 6-36, (S)-3-[(S)-1-(2-Chloro-3,6-difluorophenoxy)-2-methylpropyl]pyrrolidine]
34 | ≤ 100 | ≤ 10 | ≤ 10 | ≤ 10 | CC(C)[C@H](Oc1c(Cl)c(F)cc(F)c1Cl)[C@H]1CCNC1 [Example 6-38, (S)-3-[(S)-1-(2,6-Dichloro-3,5-difluorophenoxy)-2-methylpropyl]pyrrolidine]

Source: patent publication US7994209B2, “3-phenoxymethylpyrrolidine compounds” (Theravance, Inc., priority 2009, dated 2011)
